Legend:
[1] = system: A549/ATCC; experiment: NCI cancer screening, growth inhibition (SRB); assay type: cell-based; settings: Non-Small Cell Lung Cancer, 48 hours exposure
[2] = system: OVCAR-8; experiment: NCI cancer screening, growth inhibition (SRB); assay type: cell-based; settings: Homo sapiens, OVCAR-8, 48 h, read-out: Log10 GI50 (converted)
[3] = system: ACHN; experiment: NCI cancer screening, growth inhibition (SRB); assay type: cell-based; settings: Renal Cancer, 48 hours exposure
[4] = system: Colon 38 tumor cells; experiment: In vivo treatment of Colon 38 tumor cells implanted sc in BDF1 mice; settings: 25 mg/kg/dose twice daily for five days, FIG. 2
Excerpt: The graph plots tumor growth as a percentage of original tumor weight vs. days. Treatment of the mice occurred in days 1, 2, 3, 4 and 5.
Colon 38 tumor cells were implanted sc to BDF1 mice.

[5] = system: SK-OV-3; experiment: NCI cancer screening, growth inhibition (SRB); assay type: cell-based; settings: Homo sapiens, SK-OV-3, 48 h, read-out: Log10 GI50 (converted)
[6] = cells; settings: 48 h, read-out: Log10 GI50 (converted)
[7] = system: NCI-H522; experiment: NCI cancer screening, growth inhibition (SRB); assay type: cell-based; settings: Non-Small Cell Lung Cancer, 48 hours exposure
[8] = system: LOX D6VI; experiment: NCI cancer screening, growth inhibition (SRB); assay type: cell-based; settings: Melanoma, 48 hours exposure
[9] = system: UACC-257; experiment: NCI cancer screening, growth inhibition (SRB); assay type: cell-based
[10] = system: SNB-19; experiment: NCI cancer screening, growth inhibition (SRB); assay type: cell-based; settings: CNS Cancer, 48 hours exposure
[11] = system: K2112; experiment: cells; settings: 48 h, read-out: Log10 GI50 (converted)
[12] = system: SP-268; experiment: NCI cancer screening, growth inhibition (SRB); assay type: cell-based; settings: 48 h, read-out: Log10 GI50 (converted)
[13] = system: K-562; experiment: NCI cancer screening, growth inhibition (SRB); assay type: cell-based; settings: Leukemia, 48 hours exposure
[14] = system: HS578T; experiment: NCI cancer screening, growth inhibition (SRB); assay type: cell-based
[15] = system: MDA-MB-231/ATCC; settings: Breast Cancer; 48 hours exposure
[16] = system: SN12C; experiment: NCI cancer screening, growth inhibition (SRB); assay type: cell-based; settings: Renal Cancer, 48 hours exposure
[17] = system: SK-MEL-28; experiment: NCI cancer screening, growth inhibition (SRB); assay type: cell-based; settings: Melanoma, 48 hours exposure
[18] = system: COLO205; experiment: NCI cancer screening, growth inhibition (SRB); assay type: cell-based; settings: Homo sapiens, COLO 205, 48 h, read-out: Log10 GI50 (converted)
[19] = system: TK-30; experiment: NCI cancer screening, growth inhibition (SRB); assay type: cell-based
[20] = system: MDA-MB-231/ATCC; experiment: cells; settings: Homo sapiens, MDA-MB-231, 48 h, read-out: Log10 GI50 (converted)
[21] = system: K2112; settings: Colon Cancer; 48 hours exposure
[22] = system: OROV1; experiment: NCI cancer screening, growth inhibition (SRB); assay type: cell-based; settings: Ovarian Cancer; 48 hours exposure
Excerpt: PG=100×(Mean ODtest -Mean ODtzero)/(Mean ODtzero)

[23] = system: NCI-H460; experiment: NCI cancer screening, growth inhibition (SRB); assay type: cell-based; settings: Non-Small Cell Lung Cancer, 48 hours exposure
[24] = system: prostate cancer cell lines; experiment: NCI cancer screening, relative sensitivity (FIG. 4); assay type: cell-based; settings: FIG. 4, certain prostate cancer cell lines
Excerpt: (§1) Bars extending to the right represent sensitivity of the cell line to (-)-OddC in excess of the average sensitivity of all tested cell lines. […] Bars extending to the left correspondingly imply sensitivity less than the mean. These cell lines can be easily determined from Table 2, as the log10 concentration will be preceded by a ">".

[25] = system: each type of cancer cell tested; experiment: as above; assay type: cell-based; settings: FIG. 4, on the basis of GI50; at least one cell line of each type
Excerpt: as §1

[26] = system: colon cell lines; experiment: as above; assay type: cell-based; settings: FIG. 4, certain colon cell lines
Excerpt: as §1

[27] = system: leukemia cell lines; experiment: as above; assay type: cell-based; settings: FIG. 4, certain leukemia cell lines
Excerpt: as §1

[28] = system: 785-4; experiment: NCI cancer screening, growth inhibition (SRB); assay type: cell-based; settings: Renal Cancer, 48 hours exposure
[29] = system: OVCAR-3; experiment: NCI cancer screening, growth inhibition (SRB); assay type: cell-based; settings: Homo sapiens, OVCAR-3, 48 h, read-out: Log10 GI50 (converted)
[30] = system: SK-MEL-5; experiment: NCI cancer screening, growth inhibition (SRB); assay type: cell-based; settings: Melanoma, 48 hours exposure
[31] = read-out: Log10 GI50 (converted)

Nc1ccn([C@@H]2CO[C@H](CO)O2)c(=O)n1 [(-)-OddC, (-)-(2S,4S)-1-(2-hydroxymethyl-1,3-dioxolan-4-yl)cytosine]
GI50 ([1]; Homo sapiens, A549, read-out: Log10 GI50 (converted)): 0.977 µM | Log10 TGI [1]: > -4.00 | GI50 [2]: 1.51 µM | GI50 ([3]; Homo sapiens, ACHN, read-out: Log10 GI50 (converted)): 0.347 µM | Log10 TGI [3]: > -4.00 | colon tumor cell growth [4]: retarded | GI50 [5]: 4.47 µM | GI50 [6]: > 100 µM | GI50 ([7]; Homo sapiens, NCI-H522, read-out: Log10 GI50 (converted)): 0.871 µM | Log10 TGI [7]: > -4.00 | Log10 TGI [8]: > -4.00 | GI50 [8, 31]: 0.407 µM | GI50 ([9]; Homo sapiens, UACC-257, 48 h, read-out: Log10 GI50 (converted)): > 100 µM | Log10 TGI ([9]; Melanoma, 48 hours exposure): > -4.00 | Log10 TGI [10]: > -4.00 | GI50 ([10]; Homo sapiens, SNB-19, read-out: Log10 GI50 (converted)): 1.95 µM | GI50 [11]: > 100 µM | GI50 [12]: 6.61 µM | GI50 ([13]; Homo sapiens, K562, read-out: Log10 GI50 (converted)): 25.7 µM | Log10 TGI [13]: > -4.00 | Log10 TGI ([14]; Breast Cancer, 48 hours exposure): > -4.00 | GI50 ([14]; Homo sapiens, Hs-578T, 48 h, read-out: Log10 GI50 (converted)): > 100 µM | Log10 TGI [15]: > -4.00 | GI50 ([16]; Homo sapiens, SN12C, read-out: Log10 GI50 (converted)): 0.537 µM | Log10 TGI [16]: > -4.00 | GI50 ([17]; Homo sapiens, SK-MEL-28, read-out: Log10 GI50 (converted)): 49 µM | Log10 TGI [17]: > -4.00 | GI50 [18]: 93.3 µM | GI50 ([19]; 48 h, read-out: Log10 GI50 (converted)): > 100 µM | Log10 TGI ([19]; Renal Cancer, 48 hours exposure): > -4.00 | GI50 [20]: > 100 µM | Log10 TGI [21]: > -4.00 | Log10 TGI [22]: > -4.00 | GI50 ([23]; Homo sapiens, NCI-H460, read-out: Log10 GI50 (converted)): 47.9 µM | Log10 TGI [23]: > -4.00 | sensitivity to (-)-OddC [24]: extreme sensitivity | sensitivity to (-)-OddC [25]: exhibited sensitivity | sensitivity to (-)-OddC [26]: extreme sensitivity | sensitivity to (-)-OddC [27]: extreme sensitivity | Log10 TGI [28]: > -4.00 | GI50 [28, 31]: 4.37 µM | GI50 [29]: 36.3 µM | GI50 ([30]; Homo sapiens, SK-MEL-5, read-out: Log10 GI50 (converted)): 12.3 µM | Log10 TGI [30]: > -4.00

Reference: patent US5817667A, “Compounds and methods for the treatment of cancer” (University of Georgia Research Foudation, priority 1994, dated 1998)
